Test results taken from patent publication US12528826B2, “[1,4]oxazepino[2,3-c]quinolinone derivatives as BCL6 inhibitors” (Cancer Research Technology Limited, priority 2019, dated 2026).

Each molecule was assayed against T1, Trx-6×His-BCL6 (human BCL6 BTB domain covering amino-acid sequence 5-129) (Homo sapiens, UniProt P41182) (assay: HTRF assay (BCL6 / BCOR peptide)). Details: 1 nM Trx-6×His-BCL6, 300 nM BCOR-AF633 peptide, 2 hours incubation at room temperature.
T1 construct: made in house
Assay type: binding
Description: After 2 hours incubation at room temperature the plate was read on a Pherastar FSX (BMG Labtech) plate reader equipped with 337 nm laser excitation filter, a first emission filter at 620 nm and a second emission filter at 665 nm. The % inhibition at each concentration was calculated by normalising FRET ratio to the appropriate high (DMSO with all reagents) and low (DMSO without BCL6) controls.

**Q.** Which “HTRF avg pIC50” value does the source give for `Cn1c(=O)c2c(c3cc(Nc4ccnc(Cl)c4Cl)ccc31)N[C@@H](C1CC1)C(F)(F)CO2` [Example 4c, (S)-2-cyclopropyl-10-((2,3-dichloropyridin-4-yl)amino)-3,3-difluoro-7-methyl-1,2,3,4-tetrahydro-[1,4]oxazepino[2,3-c]quinolin-6(7H)-one] here?
**A.** The value was 7.86.

**Q.** How did the “HTRF avg pIC50” value turn out when `Cn1c(=O)c2c(c3cc(Nc4ccnc(Cl)c4F)ccc31)N[C@@H](C1CC1)C(F)(F)CO2` [Example 4d, (S)-10-((2-chloro-3-fluoropyridin-4-yl)amino)-2-cyclopropyl-3,3-difluoro-7-methyl-1,2,3,4-tetrahydro-[1,4]oxazepino[2,3-c]quinolin-6(7H)-one] was run?
**A.** The value was 7.78.

**Q.** With `Cc1nccc(Nc2ccc3c(c2)c2c(c(=O)n3C)OCC(F)(F)[C@H](C3CC3)N2)c1Cl` [Example 4e, (S)-10-((3-chloro-2-methylpyridin-4-yl)amino)-2-cyclopropyl-3,3-difluoro-7-methyl-1,2,3,4-tetrahydro-[1,4]oxazepino[2,3-c]quinolin-6(7H)-one] as the molecule, how does the “HTRF avg pIC50” value read?
**A.** The value was 7.73.

**Q.** How did the “HTRF avg pIC50” value turn out when `Cn1c(=O)c2c(c3cc(Nc4nc(N5C[C@@H](O)C[C@@H](F)C5)ncc4Cl)ccc31)N[C@@H](C1CC1)C(F)(F)CO2` [Example 9a, (S)-10-((5-chloro-2-((3S,5R)-3-fluoro-5-hydroxypiperidin-1-yl)pyrimidin-4-yl)amino)-2-cyclopropyl-3,3-difluoro-7-methyl-1,2,3,4-tetrahydro-[1,4]oxazepino[2,3-c]quinolin-6(7H)-one: (S)-10-((5-chloro-2-((3R,5S)-3-fluoro-5-hydroxypiperidin-1-yl)pyrimidin-4-yl)amino)-2-cyclopropyl-3,3-difluoro-7-methyl-1,2,3,4-tetrahydro-[1,4]oxazepino[2,3-c]quinolin-6(7H)-one (1:1)] was run?
**A.** Its value is 8.60.

Same assay, conditions: 1 nM Trx-6×His-BCL6, 300 nM BCOR-AF633 peptide, 2 hours incubation at room temperature; read-out: HTRF avg pIC50 (converted)

**Q.** With `Cn1c(=O)c2c(c3cc(Nc4nc(N5CC(C)(F)C5)ncc4Cl)ccc31)N[C@@H](C1CC1)C(F)(F)CO2` [Example 1m, (S)-10-((5-chloro-2-(3-fluoro-3-methylazetidin-1-yl)pyrimidin-4-yl)amino)-2-cyclopropyl-3,3-difluoro-7-methyl-1,2,3,4-tetrahydro-[1,4]oxazepino[2,3-c]quinolin-6(7H)-one] as the molecule, how does the IC50 read?
**A.** The IC50 was 9.33 nM.

**Q.** How did the IC50 turn out when `Cn1c(=O)c2c(c3cc(Nc4nc(N5CC(C)(O)C5)ncc4Cl)ccc31)N[C@@H](C1CC1)C(F)(F)CO2` [Example 1n, (S)-10-((5-chloro-2-(3-hydroxy-3-methylazetidin-1-yl)pyrimidin-4-yl)amino)-2-cyclopropyl-3,3-difluoro-7-methyl-1,2,3,4-tetrahydro-[1,4]oxazepino[2,3-c]quinolin-6(7H)-one] was run?
**A.** Its IC50 is 13.8 nM.

**Q.** With `C[C@H]1C[C@@H](O)CN(c2ncc(F)c(Nc3ccc4c(c3)c3c(c(=O)n4C)OCC(F)(F)[C@H](C4CC4)N3)n2)C1` [Example 2a, (S)-2-cyclopropyl-3,3-difluoro-10-((5-fluoro-2-((3R,5S)-3-hydroxy-5-methylpiperidin-1-yl)pyrimidin-4-yl)amino)-7-methyl-1,2,3,4-tetrahydro-[1,4]oxazepino[2,3-c]quinolin-6(7H)-one] as the molecule, how does the IC50 read?
**A.** The IC50 was 2.4 nM.

**Q.** For `Cn1c(=O)c2c(c3cc(Nc4nc(N5CCC(F)(F)CC5)ncc4F)ccc31)N[C@@H](C1CC1)C(F)(F)CO2` [Example 2b, (S)-2-cyclopropyl-10-((2-(4,4-difluoropiperidin-1-yl)-5-fluoropyrimidin-4-yl)amino)-3,3-difluoro-7-methyl-1,2,3,4-tetrahydro-[1,4]oxazepino[2,3-c]quinolin-6(7H)-one], which IC50 is on record?
**A.** Its IC50 is 22.4 nM.

**Q.** Which IC50 does the source give for `[2H]C([2H])([2H])n1c(=O)c2c(c3cc(Nc4nc(N5C6CCC5COC6)ncc4Cl)cnc31)N[C@@H](C1CC1)C(F)(F)CO2` [Example 3a, (S)-10-((2-(3-oxa-8-azabicyclo[3.2.1]octan-8-yl)-5-chloropyrimidin-4-yl)amino)-2-cyclopropyl-3,3-difluoro-7-(methyl-d3)-1,2,3,4-tetrahydro-[1,4]oxazepino[2,3-c][1,8]naphthyridin-6(7H)-one] here?
**A.** The IC50 was 1.62 nM.

**Q.** For `Cc1noc(-c2cc(Nc3ccc4c(c3)c3c(c(=O)n4C)OCC(F)(F)[C@H](C4CC4)N3)c(Cl)cn2)n1` [Example 4a, (S)-10-((5-chloro-2-(3-methyl-1,2,4-oxadiazol-5-yl)pyridin-4-yl)amino)-2-cyclopropyl-3,3-difluoro-7-methyl-1,2,3,4-tetrahydro-[1,4]oxazepino[2,3-c]quinolin-6(7H)-one], which IC50 is on record?
**A.** The IC50 was 3.47 nM.

**Q.** With `Cn1c(=O)c2c(c3cc(Nc4nc(N5[C@@H]6COC[C@H]5C[C@@H](O)C6)ncc4F)ccc31)N[C@@H](C1CC1)C(F)(F)CO2` [Example 5a, (S)-2-cyclopropyl-3,3-difluoro-10-((5-fluoro-2-((1R,5S,7R)-7-hydroxy-3-oxa-9-azabicyclo[3.3.1]nonan-9-yl)pyrimidin-4-yl)amino)-7-methyl-1,2,3,4-tetrahydro-[1,4]oxazepino[2,3-c]quinolin-6(7H)-one] as the molecule, how does the IC50 read?
**A.** Its IC50 is 1.51 nM.

**Q.** How did the IC50 turn out when `Cn1c(=O)c2c(c3cc(Nc4ncncc4Cl)ccc31)N[C@@H](C1CC1)C(F)(F)CO2` [Example 6a, (S)-10-((5-chloropyrimidin-4-yl)amino)-2-cyclopropyl-3,3-difluoro-7-methyl-1,2,3,4-tetrahydro-[1,4]oxazepino[2,3-c]quinolin-6(7H)-one] was run?
**A.** The IC50 was 14.1 nM.

**Q.** `CN(C)c1ncc(Cl)c(Nc2ccc3c(c2)c2c(c(=O)n3C)OCC(F)(F)[C@H](C3CC3)N2)n1` [Example 8a, (S)-10-((5-chloro-2-(dimethylamino)pyrimidin-4-yl)amino)-2-cyclopropyl-3,3-difluoro-7-methyl-1,2,3,4-tetrahydro-[1,4]oxazepino[2,3-c]quinolin-6(7H)-one] was tested. Which IC50 did it give?
**A.** The IC50 was 10.7 nM.

**Q.** Which IC50 does the source give for `Cn1c(=O)c2c(c3cc(Nc4nc(N5C[C@H](O)C[C@H](F)C5)ncc4Cl)ccc31)N[C@@H](C1CC1)C(F)(F)CO2` [Example 9a-1, (S)-10-((5-chloro-2-((3S,5R)-3-fluoro-5-hydroxypiperidin-1-yl)pyrimidin-4-yl)amino)-2-cyclopropyl-3,3-difluoro-7-methyl-1,2,3,4-tetrahydro-[1,4]oxazepino[2,3-c]quinolin-6(7H)-one] here?
**A.** Its IC50 is 1.82 nM.

**Q.** How did the IC50 turn out when `Cn1c(=O)c2c(c3cc(Nc4nc(N5C[C@@H](O)C[C@@H](F)C5)ncc4Cl)ccc31)N[C@@H](C1CC1)C(F)(F)CO2` [Example 9a-2, (S)-10-((5-chloro-2-((3R,5S)-3-fluoro-5-hydroxypiperidin-1-yl)pyrimidin-4-yl)amino)-2-cyclopropyl-3,3-difluoro-7-methyl-1,2,3,4-tetrahydro-[1,4]oxazepino[2,3-c]quinolin-6(7H)-one] was run?
**A.** Its IC50 is 2.95 nM.

**Q.** With `CN(C)C[C@@H]1CCCN(c2ncc(Cl)c(Nc3ccc4c(c3)c3c(c(=O)n4C)OCC(F)(F)[C@H](C4CC4)N3)n2)C1` [Example 9b, (S)-10-((5-chloro-2-((S)-3-((dimethylamino)methyl)piperidin-1-yl)pyrimidin-4-yl)amino)-2-cyclopropyl-3,3-difluoro-7-methyl-1,2,3,4-tetrahydro-[1,4]oxazepino[2,3-c]quinolin-6(7H)-one] as the molecule, how does the IC50 read?
**A.** Its IC50 is 3.09 nM.

**Q.** How did the IC50 turn out when `CN(C)[C@H]1CCCN(c2ncc(Cl)c(Nc3ccc4c(c3)c3c(c(=O)n4C)OCC(F)(F)[C@H](C4CC4)N3)n2)C1` [Example 9h, (S)-10-((5-chloro-2-((S)-3-(dimethylamino)piperidin-1-yl)pyrimidin-4-yl)amino)-2-cyclopropyl-3,3-difluoro-7-methyl-1,2,3,4-tetrahydro-[1,4]oxazepino[2,3-c]quinolin-6(7H)-one] was run?
**A.** Its IC50 is 3.39 nM.
